{"source": "patent US9682130B2", "about": "(priority 2015, dated 2017)", "key": {"Adenovirus serotype Ad5": {"tested_on": "Adenovirus serotype Ad5", "test": "Ad5/NZW rabbit ocular replication model, plaque assay of ocular samples", "assay_type": "in vivo", "details": "0.5% Cidofovir, twice daily 7 days", "protocol": "See, e.g., Romanowski, et al., The In Vitro and In Vivo Evaluation of ddC as a Topical Antiviral for Ocular Adenovirus Infections, Invest. Ophthalmol. Vis. Sci. 50: 5295-5299 (2009), which is hereby incorporated by reference in its entirety.\n(§1) To conduct this in vivo assay, 25 NZW rabbit were anesthetized using the general anesthesia ketamine and xylazine and the topical anesthesia proparacaine. Each rabbit was then topically inoculated with 50 μL of Adenovirus serotype Ad5 (3×10^7 pfu/mL) in both eyes after corneal epithelial scarification (12 cross-hatched strokes of a 25 sterile needle). Eyes were closed and gently rubbed for 5 seconds to ensure contact of the virus on all ocular surfaces. […] All topical solutions (37 μL drops) were instilled with an electronic pipette (EDP; Rainin, Oakland, Calif.) set in the multi-dispense mode. Ocular swabbing to recover adenovirus from tear film and corneal and conjunctival surfaces, after topical anesthesia with proparacaine, was performed at least 1 hour after the final dose on days 0, 1, 3, 4, 5, 7, 9, 11, and 14 after inoculation. The ocular samples from each eye was placed individually into tubes containing 1 mL of medium and were frozen at −70° C. pending viral plaque assay.\nThe ocular samples were assayed for Ad5 titers by performing a plaque reduction assay. Samples were diluted 1:10 and these dilutions were inoculated onto duplicate wells of a 24 well multi-plate containing A549 monolayers. The virus was adsorbed for 3 hours at 37° C. in a 5% CO2-water vapor atmosphere without constant rocking. After adsorption, 1 mL of medium plus 0.5% methylcellulose was added to each well, and the plates were incubated at 37° C. in a 5% CO2-water vapor atmosphere. After 7 days, the cells were stained with 0.5% gentian violet, and the number of plaques counted using a dissecting microscope (25×). The viral titers were then calculated, and will be expressed as plaque-forming units per milliliter (PFU/mL). Data from the study were analyzed using analysis of variance (ANOVA) with Fisher's pair-wise comparisons and X^2 analyses using True Epistat and/or Minitab statistical software. Significance was established at the P≦0.05 confidence level."}, "[1]": {"test": "Eye irritation, Draize scale (MMTS), Ad5/NZW rabbit ocular model", "assay_type": "in vivo", "details": "NZW, rabbit, in vivo", "protocol": "as §1, with “surfaces. Inoculation of both eyes allowed for the reduction in the number of animals needed without jeopardizing statistical validity.” for “surfaces.”\nThe animals were assayed for eye irritation using a Draize scale for ocular lesions. Classification of eye irritation was evaluated for both eyes of each rabbit on day 3 and day 9 using the maximum mean total score (MMTS; Table 4). See, e.g., Kay and Calandra, Interpretation of Eye Irritation Tests, J. Soc. Cos. Chem. 13: 281-289 (1962), the content of which is hereby incorporated by reference in its entirety. The MMTS score used was as follows: 0.0-0.5, Non-Irritating (N); 0.6-2.5, Practically Non-Irritating (PN); 2.6-15.0, Minimally Irritating (M1); 15.1-25.0, Mildly Irritating (M2); 25.1-50.0, Moderately Irritating (M3); 50.1-80.0, Severely Irritating (S); 80.1-100.0, Extremely Irritating (E); and 100.1-110.0, Maximally Irritating (Mx)."}, "[2]": {"tested_on": "Human Adenovirus 8 (Ad8 strain 13306)", "test": "Neutral red lysosomal uptake assay, Adenovirus 8", "assay_type": "cell-based", "details": "MA104; Adenovirus 8, MA-104 cells", "protocol": "(§2) To assess in vitro cytotoxicity, both a cytopathic effects of a virus (CPE) regression assay and a neutral red lysosomal uptake cell viability assay was performed essentially as described in, e.g., Repetto, et al., Neutral Red Uptake Assay for the Estimation of Cell Viability/Cytotoxicity, Nat. Protoc. 3: 1125-1131 (2008), the content of which is hereby incorporated by reference in its entirety. Ninety-six-well plates were seeded with MA-104 cells at 1×10^5 cells/mL and incubated overnight at 37° C. with 5% CO2. […] Each dilution was added to 5 wells of a 96-well plate with 80% to 100% confluent cells, and three wells of each dilution were then infected with one of the two test viruses. Two wells remained uninfected as controls for toxicity. Six wells per plate were set aside as uninfected, untreated cell controls, and six wells per plate were infected with no treatment as virus controls. […] Assay plates were incubated at 37° C. with 5% CO2. […] After CPE reduction assay was completed, a neutral red lysosomal uptake assay was conducted by filling each well with 0.011% (m/v) neutral red, a vital stain. The plates then were incubated for about 2 hours at 37° C. in the dark. […] The plates were then read on a spectrophotometer at 540 nm to quantify the neutral red taken up by the healthy cells. […]"}, "MA-104 cells": {"tested_on": "MA-104 cells", "details": "African green monkey"}, "in vitro": {"test": "in vitro", "details": "African green monkey"}, "[3]": {"tested_on": "Human Adenovirus 8 (Ad8 strain 13306)", "test": "CPE reduction assay, Adenovirus 8", "assay_type": "cell-based", "details": "MA104; Adenovirus 8, MA-104 cells", "protocol": "as §2"}, "[4]": {"tested_on": "Human Adenovirus 5 (AD5 strain NYS #98-1836)", "test": "microbe, parasite or virus in culture", "assay_type": "cell-based", "details": "Human mastadenovirus C, MA104, Adenovirus 5, MA-104 cells", "protocol": "To assess in vitro cytotoxicity, both a cytopathic effects of a virus (CPE) regression assay and a neutral red lysosomal uptake cell viability assay was performed essentially as described in, e.g., Repetto, et al., Neutral Red Uptake Assay for the Estimation of Cell Viability/Cytotoxicity, Nat. Protoc. 3: 1125-1131 (2008), the content of which is hereby incorporated by reference in its entirety. Ninety-six-well plates were seeded with MA-104 cells at 1×10^5 cells/mL and incubated overnight at 37° C. with 5% CO2. […] Each dilution was added to 5 wells of a 96-well plate with 80% to 100% confluent cells, and three wells of each dilution were then infected with one of the two test viruses. Two wells remained uninfected as controls for toxicity. Six wells per plate were set aside as uninfected, untreated cell controls, and six wells per plate were infected with no treatment as virus controls. […] Assay plates were incubated at 37° C. with 5% CO2. […] After CPE reduction assay was completed, a neutral red lysosomal uptake assay was conducted by filling each well with 0.011% (m/v) neutral red, a vital stain. The plates then were incubated for about 2 hours at 37° C. in the dark. The unincorporated neutral red solution was removed from the wells and the incorporated dye was then eluted by adding Sorensen's citrate-buffered ethanol. The plates were then read on a spectrophotometer at 540 nm to quantify the neutral red taken up by the healthy cells. The optical density of test wells was converted to percent of cell control and normalized to the virus controls.\nThe concentration of test compound required to inhibit CPE by 50% or reduce red uptake into cells by 50% (EC50) was calculated by regression analysis. The toxicity of the compound without virus present was similarly calculated using the uninfected wells treated with test compounds compared with untreated cell controls. The concentration of compound that would cause 50% cytotoxic effects in the absence of virus (CC50) was estimated by linear regression analysis. The selectivity index (SI) is the CC50 divided by EC50."}}, "note": "Read-outs that look alike come from different tables or passages of the source.", "data": [{"molecule": "Nc1ccn(C[C@@H](CO)OCP(=O)(O)O)c(=O)n1", "note": "[CDV, Cidofovir, reference compound]", "values": [{"measurement": "Ad5-positive ocular samples, percent, Day 1", "setting": "Adenovirus serotype Ad5", "result": 100, "unit": "%"}, {"measurement": "Ad5-positive ocular samples, percent, Day 3", "setting": "Adenovirus serotype Ad5", "result": 100, "unit": "%"}, {"measurement": "Ad5-positive ocular samples, percent, Day 4", "setting": "Adenovirus serotype Ad5", "result": 100, "unit": "%"}, {"measurement": "Ad5-positive ocular samples, percent, Day 5", "setting": "Adenovirus serotype Ad5", "result": 100, "unit": "%"}, {"measurement": "Ad5-positive ocular samples, percent, Day 7", "setting": "Adenovirus serotype Ad5", "result": 63, "unit": "%"}, {"measurement": "Ad5-positive ocular samples, percent, Day 11", "setting": "Adenovirus serotype Ad5", "result": 0, "unit": "%"}, {"measurement": "Ad5-positive ocular samples, percent, Day 14", "setting": "Adenovirus serotype Ad5", "result": 0, "unit": "%"}, {"measurement": "Ad5-positive ocular samples, percent, Total", "setting": "Adenovirus serotype Ad5", "result": 66.1, "unit": "%"}, {"measurement": "Ad5-positive ocular samples/total eyes, Day 1", "setting": "Adenovirus serotype Ad5", "result": "8/8"}, {"measurement": "Ad5-positive ocular samples/total eyes, Day 3", "setting": "Adenovirus serotype Ad5", "result": "8/8"}, {"measurement": "Ad5-positive ocular samples/total eyes, Day 4", "setting": "Adenovirus serotype Ad5", "result": "8/8"}, {"measurement": "Ad5-positive ocular samples/total eyes, Day 5", "setting": "Adenovirus serotype Ad5", "result": "8/8"}, {"measurement": "Ad5-positive ocular samples/total eyes, Day 7", "setting": "Adenovirus serotype Ad5", "result": "5/8"}, {"measurement": "Ad5-positive ocular samples/total eyes, Day 11", "setting": "Adenovirus serotype Ad5", "result": "0/8"}, {"measurement": "Ad5-positive ocular samples/total eyes, Day 14", "setting": "Adenovirus serotype Ad5", "result": "0/8"}, {"measurement": "Ad5-positive ocular samples/total eyes, Total", "setting": "Adenovirus serotype Ad5", "result": "37/56"}, {"measurement": "Ocular irritation MMTS score, Day 3", "setting": "[1]; 3 day", "result": 5.9}, {"measurement": "Ocular irritation MMTS score, Day 9", "setting": "[1]; 9 day", "result": 27.5}]}, {"molecule": "Nc1ccn([C@H]2CC[C@@H](CO)O2)c(=O)n1", "note": "[ddC, 2′, 3′-Dideoxycytidine]", "values": [{"measurement": "EC50", "setting": "[2]", "result": 2.7, "unit": "µg/mL"}, {"measurement": "CPE Reduction Assay CC50", "setting": "MA-104 cells", "result": "<5000", "unit": "µg/mL"}, {"measurement": "Neutral Red Assay CC50", "setting": "MA-104 cells", "result": "<5000", "unit": "µg/mL"}, {"measurement": "CC50", "setting": "in vitro", "result": "< 5000", "unit": "µg/mL"}, {"measurement": "EC50", "setting": "[3]", "result": 2.1, "unit": "µg/mL"}, {"measurement": "EC50", "setting": "[4]; read-out: CPE Reduction Assay EC50", "result": 2.1, "unit": "µg/mL"}, {"measurement": "EC50", "setting": "[4]; read-out: Neutral Red Assay EC50", "result": 2.7, "unit": "µg/mL"}]}]}
